Measurements taken from patent publication US7851501B2, “Aromatic nitrocatechol compounds and their use for modulating processes mediated by cell adhesion molecules” (Revotar Biopharmaceuticals AG, priority 2005, dated 2010).

How the values were obtained:
[1] = target: T1, human E-Selectin-IgG-chimera (Homo sapiens, UniProt P16581); assay: Flow chamber assay, cell adhesion and rolling under flow conditions, E-selectin; format: cell-based; settings: 125 μM compound; HL-60 cells; flow shear 1 dyne/cm^2; after 5 minutes continuous flow
T1 sequence (P16581 with tags, fused parts or gaps limits assumed): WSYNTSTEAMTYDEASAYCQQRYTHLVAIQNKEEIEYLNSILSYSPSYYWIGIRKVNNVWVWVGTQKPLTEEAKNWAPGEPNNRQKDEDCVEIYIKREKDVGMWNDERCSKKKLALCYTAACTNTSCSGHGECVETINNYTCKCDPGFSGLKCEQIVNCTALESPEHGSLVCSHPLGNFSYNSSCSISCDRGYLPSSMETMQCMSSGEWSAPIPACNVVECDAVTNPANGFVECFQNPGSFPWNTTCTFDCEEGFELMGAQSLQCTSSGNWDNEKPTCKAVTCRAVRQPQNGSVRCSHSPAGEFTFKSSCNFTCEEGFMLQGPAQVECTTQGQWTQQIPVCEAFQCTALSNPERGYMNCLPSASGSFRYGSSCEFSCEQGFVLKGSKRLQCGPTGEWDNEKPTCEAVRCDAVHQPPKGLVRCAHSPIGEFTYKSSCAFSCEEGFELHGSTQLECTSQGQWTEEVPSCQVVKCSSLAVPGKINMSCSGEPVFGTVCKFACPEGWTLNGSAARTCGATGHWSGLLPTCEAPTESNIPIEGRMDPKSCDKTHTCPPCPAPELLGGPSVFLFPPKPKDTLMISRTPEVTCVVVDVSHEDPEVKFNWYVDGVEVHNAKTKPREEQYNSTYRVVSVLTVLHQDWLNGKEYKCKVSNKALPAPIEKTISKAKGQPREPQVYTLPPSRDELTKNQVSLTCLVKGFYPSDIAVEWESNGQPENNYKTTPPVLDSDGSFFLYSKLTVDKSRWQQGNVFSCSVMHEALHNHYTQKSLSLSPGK
Protocol: (§1) Values are given as normalized ratios of %-inhibition of compound x divided by %-inhibition of bimosiamose.
(§2) Flow Chamber Assay/Cell Adhesion and Rolling Under Flow Conditions
(§3) To assess the capability of compounds to inhibit cell binding under dynamic conditions resembling the flow in a blood vessel, flow chamber assays addressing/testing binding of HL-60 cells/various cell lines to P-selectin, L-selectin and E-selectin chimeric molecules are performed.
(§4) Cell attachment under flow conditions are determined using a parallel flow chamber system. A 35 mm polystyrene culture dish is coated for 1 hour at room temperature with coating buffer (50 mM tris-(hydroxymethyl)aminomethane buffer (Tris), 150 mM NaCl, 2 mM CaCl2; pH 7.4) containing human E- or P-selectin-IgG chimera at concentrations of 2.5 μg/ml or 10 μg/ml, respectively. After removal of the coating solution non specific binding sites are blocked for an additional hour with 1% BSA in coating buffer at room temperature. After washing with assay buffer (“Roswell Park Memorial Institute 1640” (RPMI 1640)+10 mM HEPES) the dish is fitted into a parallel plate laminar flow chamber (sold from Glycotech, Rockville, Md.) and mounted on an inverted phase-contrast microscope (sold from Olympus, Hamburg, Germany) equipped with a CCD camera (JVC) that is connected to a PC. Employing a peristaltic pump (sold from Ismatec, Wertheim-Mondfeld, Germany) the re-circulating system is equilibrated with assay buffer containing 125 μM compound or vehicle control (DMSO). Cells (1 million/ml) are added to the chamber and allowed to distribute for 2 minutes at a high flow rate. The flow rate is then decreased resulting in a calculated flow shear of 1 dyne/cm^2. Video sequences of 10 low power fields are digitally recorded after 5 minutes continuous flow. The percentage of inhibition is calculated from the mean number of cells per field that attached to the coated dish surface in the presence versus absence of compound […].

[2] = target: T2, human P-Selectin-IgG-chimera (Homo sapiens, UniProt P16109); assay: Flow chamber assay, cell adhesion and rolling under flow conditions, P-selectin; format: cell-based; settings: 125 μM compound; HL-60 cells; flow shear 1 dyne/cm^2; after 5 minutes continuous flow
T2 sequence (P16109 with tags, fused parts or gaps limits assumed): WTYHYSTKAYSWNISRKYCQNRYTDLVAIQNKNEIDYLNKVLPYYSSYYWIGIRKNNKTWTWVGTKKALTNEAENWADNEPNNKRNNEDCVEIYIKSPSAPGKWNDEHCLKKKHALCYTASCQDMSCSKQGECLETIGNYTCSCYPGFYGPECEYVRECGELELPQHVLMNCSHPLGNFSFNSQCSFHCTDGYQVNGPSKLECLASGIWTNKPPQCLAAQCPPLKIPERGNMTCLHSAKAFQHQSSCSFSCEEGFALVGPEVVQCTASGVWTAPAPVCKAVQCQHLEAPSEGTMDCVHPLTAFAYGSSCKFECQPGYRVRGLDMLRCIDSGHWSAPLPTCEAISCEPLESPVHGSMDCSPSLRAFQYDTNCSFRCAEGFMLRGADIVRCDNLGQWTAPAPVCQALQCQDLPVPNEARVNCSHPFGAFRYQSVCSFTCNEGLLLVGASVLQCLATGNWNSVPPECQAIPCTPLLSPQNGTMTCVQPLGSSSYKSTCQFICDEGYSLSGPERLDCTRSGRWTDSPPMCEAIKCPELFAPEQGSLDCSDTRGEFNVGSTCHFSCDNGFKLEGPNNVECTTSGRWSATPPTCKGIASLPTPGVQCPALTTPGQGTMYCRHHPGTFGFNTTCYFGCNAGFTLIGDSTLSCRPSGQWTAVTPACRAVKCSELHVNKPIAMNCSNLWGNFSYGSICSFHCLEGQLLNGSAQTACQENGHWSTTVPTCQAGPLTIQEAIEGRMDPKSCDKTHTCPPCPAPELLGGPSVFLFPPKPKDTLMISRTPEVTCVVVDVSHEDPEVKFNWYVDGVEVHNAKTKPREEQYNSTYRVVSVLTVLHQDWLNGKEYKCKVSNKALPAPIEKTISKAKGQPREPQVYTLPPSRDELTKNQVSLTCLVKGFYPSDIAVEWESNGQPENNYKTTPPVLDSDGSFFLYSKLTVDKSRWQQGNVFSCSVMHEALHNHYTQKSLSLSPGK
Protocol: as §1, §2, §3, §4

[3] = target: T2, human P-Selectin-IgG-chimera; assay: Sialyl Lewis x Tyrosine Sulfate Assay (sLex TSA), P-selectin; settings: inhibition of binding of sLex-tyrosine sulfate polyacrylamide ligand complex
Protocol: (§5) Compounds of the present invention are assayed on a molecular level for their ability to inhibit the binding of P-, L-, or E-selectin chimeric molecules to sLe^x and tyrosinesulfate residues linked to a polymeric matrix as a PSGL-1 substitute. Selected IC50-values are determined.
(§6) Microtiter plates are coated overnight in carbonate buffer pH9.6 with goat anti human Fc mAB (10 μg/ml). After washing in assay buffer (25 mM 4-(2-hydroxyethyl)-1-piperazineethanesulfonic acid (HEPES), 150 mM NaCl, 1 mM CaCl2 pH7.4) and blocking (3% bovine serum albumin (BSA) in assay buffer) plates are incubated for 2 h at 37° C. with human P-Selectin-IgG-chimera (0.61 nM respectively 150 ng/mL) or human L-Selectin-IgG-chimera (0.61 nM respectively 89 ng/mL) or human E-Selectin-IgG-chimera (0.61 nM respectively 131 ng/mL). 5 μl of sLe^x-tyrosine sulfate polyacrylamide (1 mg/ml) carrying 15% sLe^x, 10% Tyrosine-sulfate and 5% biotin is complexed with […] Streptavidin-Peroxidase solution (1 mg/ml) and 25 μl assay buffer without CaCl2. For use in the assay, the ligand complex is diluted 1:10000 in assay buffer and further diluted 1:1 with varying amounts of compounds in assay buffer incl. 2% DMSO. This mixture is added to the wells precoated with E- or P-selectin. After incubation for 2 h at 37° C., wells are washed for six times with in assay buffer incl. 0.005% Polyoxyethylenesorbitan monolaurate (TWEEN 20), developed for 10-15 min with 20 μl 3,3′,5,5′-tetramethylbenzidine (TMB)/H2O2 substrate solution and stopped with 20 μl 1M H2SO4. Bound sLe^x-Tyrosine sulfate ligand complex is determined by measuring optical density at 450 nm vs. 620 nm in a Fusion alpha-FP reader (sold from Packard Bioscience, Dreieich, Germany).

[4] = target: human L-Selectin-IgG-chimera (Homo sapiens, UniProt P14151); assay: Sialyl Lewis x Tyrosine Sulfate Assay (sLex TSA), L-selectin; settings: inhibition of binding of sLex-tyrosine sulfate polyacrylamide ligand complex
human L-Selectin-IgG-chimera, sequence (P14151 with tags, fused parts or gaps limits assumed): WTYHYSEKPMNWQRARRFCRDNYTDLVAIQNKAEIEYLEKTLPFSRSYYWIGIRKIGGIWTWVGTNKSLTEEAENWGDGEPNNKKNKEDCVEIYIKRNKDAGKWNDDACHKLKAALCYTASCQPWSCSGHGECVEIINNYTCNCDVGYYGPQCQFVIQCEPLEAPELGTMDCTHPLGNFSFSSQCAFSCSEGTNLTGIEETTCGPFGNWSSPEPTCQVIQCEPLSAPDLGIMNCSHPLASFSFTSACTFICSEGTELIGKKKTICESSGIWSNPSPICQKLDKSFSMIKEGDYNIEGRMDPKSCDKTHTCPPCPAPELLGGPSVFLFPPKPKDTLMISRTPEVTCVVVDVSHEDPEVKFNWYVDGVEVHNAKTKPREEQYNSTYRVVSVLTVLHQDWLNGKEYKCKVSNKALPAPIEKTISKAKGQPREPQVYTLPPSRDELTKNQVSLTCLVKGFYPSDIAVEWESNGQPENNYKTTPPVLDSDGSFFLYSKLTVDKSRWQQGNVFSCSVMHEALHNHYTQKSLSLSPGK
Protocol: as §5, §6

[5] = target: T1, human E-Selectin-IgG-chimera; assay: Sialyl Lewis x Tyrosine Sulfate Assay (sLex TSA), E-selectin; settings: inhibition of binding of sLex-tyrosine sulfate polyacrylamide ligand complex
Protocol: as §5
as §6, with “This mixture is added to the wells precoated with E- or P-selectin. After incubation for 2 h at 37° C., wells are washed for six times with in assay buffer incl. 0.005% Polyoxyethylenesorbitan monolaurate (TWEEN 20), developed for 10-15 min with 20 μl 3,3′,5,5′-tetramethylbenzidine (TMB)/H2O2 substrate solution and stopped with 20 μl 1M H2SO4.” left out

O=C(O)Cc1ccc(-c2ccccc2NC(=O)Cc2cc(O)c(O)c([N+](=O)[O-])c2)s1 [Compound 121, (5-{2-[2-(3,4-Dihydroxy-5-nitro-phenyl)-acetylamino]-phenyl}-thiophen-2-yl)-acetic acid]
E-Selectin normalized ratio of %-inhibition of compound divided by %-inhibition of bimosiamose [1]: 0.98 Ratio
P-Selectin normalized ratio of %-inhibition of compound divided by %-inhibition of bimosiamose [2]: 0.89 Ratio

O=C(O)Cc1ccc(-c2ccccc2NC(=O)c2cccc(-c3cc(O)c(O)cc3[N+](=O)[O-])c2)s1 [Compound 118, (5-{2-[(4′,5′-Dihydroxy-2′-nitro-biphenyl-3-carbonyl)-amino]-phenyl}-thiophen-2-yl)-acetic acid]
IC50 [3]: 19.2 µM
IC50 [4]: 39.2 µM
E-Selectin normalized ratio of %-inhibition of compound divided by %-inhibition of bimosiamose [1]: 0.84 Ratio
P-Selectin normalized ratio of %-inhibition of compound divided by %-inhibition of bimosiamose [2]: 1.19 Ratio

O=C(Nc1ccccc1-c1ccc(C(=O)O)s1)c1cccc(-c2cc(O)c(O)cc2[N+](=O)[O-])c1 [Compound 119, 5-{2-[(4′,5′-Dihydroxy-2′-nitro-biphenyl-3-carbonyl)-amino]-phenyl}-thiophene-2-carboxylic acid]
IC50 [5]: 272 µM
IC50 [3]: 11 µM
IC50 [4]: 17.1 µM
E-Selectin normalized ratio of %-inhibition of compound divided by %-inhibition of bimosiamose [1]: 0.86 Ratio
P-Selectin normalized ratio of %-inhibition of compound divided by %-inhibition of bimosiamose [2]: 1.67 Ratio

O=C(O)Cc1ccc(-c2ccccc2NC(=O)Cc2cc(O)c(O)cc2[N+](=O)[O-])s1 [Compound 110, (5-{2-[2-(4,5-Dihydroxy-2-nitro-phenyl)-acetylamino]-phenyl}-thiophen-2-yl)-acetic acid]
E-Selectin normalized ratio of %-inhibition of compound divided by %-inhibition of bimosiamose [1]: 1.00 Ratio
P-Selectin normalized ratio of %-inhibition of compound divided by %-inhibition of bimosiamose [2]: 1.26 Ratio

Cc1oc(-c2ccc(NC(=O)c3cccc(-c4cc(O)c(O)cc4[N+](=O)[O-])c3)cc2)cc1C(=O)O [Compound 113, 2-Methyl-5-{4-[(2′-nitro-4′,5′-dihydroxy-biphenyl-3-carbonyl)-amino]-phenyl}-furan-3-carboxylic acid]
E-Selectin normalized ratio of %-inhibition of compound divided by %-inhibition of bimosiamose [1]: 1.37 Ratio
P-Selectin normalized ratio of %-inhibition of compound divided by %-inhibition of bimosiamose [2]: 1.30 Ratio

O=C(Nc1ccccc1)c1cccc(-c2cc(O)c(O)cc2[N+](=O)[O-])c1 [Compound 117, 4′,5′-Dihydroxy-2′-nitro-biphenyl-3-carboxylic acid phenylamide]
E-Selectin normalized ratio of %-inhibition of compound divided by %-inhibition of bimosiamose [1]: n.s.
P-Selectin normalized ratio of %-inhibition of compound divided by %-inhibition of bimosiamose [2]: 0.83 Ratio

O=C(O)Cc1ccc(-c2ccccc2NC(=O)c2cccc(-c3cc([N+](=O)[O-])cc(O)c3O)c2)s1 [Compound 116, (5-{2-[(2′,3′-Dihydroxy-5′-nitro-biphenyl-3-carbonyl)-amino]-phenyl}-thiophen-2-yl)-acetic acid]
IC50 [5]: 308 µM
IC50 [3]: 5.2 µM
IC50 [4]: 8.7 µM
E-Selectin normalized ratio of %-inhibition of compound divided by %-inhibition of bimosiamose [1]: 1.23 Ratio
P-Selectin normalized ratio of %-inhibition of compound divided by %-inhibition of bimosiamose [2]: 1.32 Ratio

O=C(Nc1ccccc1-c1ccc(C(=O)O)s1)c1cccc(-c2cc([N+](=O)[O-])cc(O)c2O)c1 [Compound 120, 5-{2-[(2′-3′-Dihydroxy-5′-nitro-biphenyl-3-carbonyl)-amino]-phenyl}-thiophene-2-carboxylic acid]
IC50 [3]: 4.6 µM
IC50 [4]: 6.6 µM
E-Selectin normalized ratio of %-inhibition of compound divided by %-inhibition of bimosiamose [1]: 1.01 Ratio
P-Selectin normalized ratio of %-inhibition of compound divided by %-inhibition of bimosiamose [2]: 1.72 Ratio
